Data reported in patent US20160346255A1, “METHODS, AGENTS AND COMPOSITIONS FOR TREATMENT OF INFLAMMATORY CONDITIONS” (Betanien Hospital, priority 2014, published 2016).
Non-standard residues stand in square brackets, D forms with d. Residues, ends and D or L forms follow the SMILES beside them. *: point of attachment. dPhe(4-NHCONH2) = NC(=O)Nc1ccc(C[C@@H](N)C(=O)O)cc1; Dihydroorotyl(S) = O=C1C[C@@H](C(=O)*)NC(=O)N1; dPhe(4-Cl) = N[C@H](Cc1ccc(Cl)cc1)C(=O)O; Phe(4-NH2) = Nc1ccc(C[C@H](N)C(=O)O)cc1; d2Nal = N[C@H](Cc1ccc2ccccc2c1)C(=O)O; Lys(iPr) = CC(C)NCCCC[C@H](N)C(=O)O; d3Pal = N[C@H](Cc1cccnc1)C(=O)O

Columns and labels:
Type in all cases: in vivo, human
peripheral GnRH = test: Peripheral GnRH levels by ELISA in patients on degarelix
Procedure: (§1) We analysed peripheral GnRH levels in patients with various autoimmune diseases using ELISA. […] Due to the nature of ELISA assays, the concentration in pg/mL should not necessarily be regarded as absolute, and may be interpreted as relative. RA Patient A Baseline GnRH 394 pg/mL, after 3 months of degarelix with loading dose 240 mg, and maintenance doses 80 mg every 2 weeks, GnRH 359 pg/mL. […] During that month/6 weeks […] general function had improved, for example MSIS-29 had reduced from 121 to 110. […] During that period their PASI score reduced by more than 20%. Healthy control 1 baseline GnRH 162 pg/mL, healthy control 2 baseline GnRH 120 pg/mL, healthy control 3 baseline GnRH 153 pg/mL.

[1] = as above; settings: 3 months
Procedure: as §1

[2] = tested on: Patient with Rheumatoid Arthritis; test: RA patient treated with degarelix and methotrexate
Procedure: • person with seropositive rheumatoid arthritis with disease duration of 16 years • Fulfilled ACR 2010 classification criteria for rheumatoid arthritis
• Previously failed 3 biologics (etanercept, Actemra, and rituximab). Last tried rituximab November 2013, but increasing disease activity and blood tests (CRP and ESR) during the months thereafter until start of degarelix 16.06.14. Concomitantly used stable methotrexate 10 mg weekly since 1999. • Started degarelix 240 mg induction dose 16.06.14, with 80 mg every 2 weeks thereafter. • Disease activity reduced and they achieved an ACR60 response by 29.09.14 under the introduction of degarelix and stable concomitant methotrexate and prednisolone. • 03.10.14 the patient's pulmonary physician stopped methotrexate treatment due to pleural thickening, and CT imaging supporting lung fibrosis which was suspected to be due to methotrexate. The patient had dyspnea which resolved once methotrexate was stopped. • By 21.11.14, the patients disease activity score had increased from 5.1 (29.9.14) to 5.7 (21.11.14), due to the discontinuation of methotrexate.

[3] = tested on: Patient with Multiple Sclerosis; test: Multiple sclerosis patient treated with degarelix (with concomitant fampridine)
Procedure: • person, diagnosed with multiple sclerosis (MS). Their MS was of the progressive type; characterized by a steady deterioration in function. • Fulfilled the 2010 McDonald Criteria for the diagnosis of MS (1).
• So far results of clinical trials for progressive MS have generally been disappointing. Currently, there is no FDA-approved treatment for progressive MS disease. • December 2014 received first dose of degarelix 240 mg s.c. • Received degarelix 80 mg s.c. every two weeks thereafter.
• This patient's EDSS has remained stable at 6.5, as expected over such a short time period of 6 weeks. A score of 6.5 is equivalent to only being able to walk with the aid of a walker, as in their case. This was evident at baseline and 6 weeks.
• Patient-reported outcomes are of increasing importance in trials of progressive multiple sclerosis (2). The most frequently used global patient-reported outcome in multiple sclerosis is the MSIS-29 (3). This has been correlated with clinical and imaging metrics specifically in progressive forms of the disease (4). According to a recent review (2), patient reported outcomes in trials of progressive multiple sclerosis can be used to validate MRI or clinical metrics, and increased use of patient-reported outcomes in trials of progressive multiple sclerosis will be expected to help satisfy regulators' requirements that treatments show relevant benefit for patients. • At baseline, they scored 121 on the MSIS-29. By 6 weeks, their score was reduced to 110. A clinically significant minimal difference is a score change of 8. Therefore this reduction of 11 in their score is considered clinically significant (5).
• The MSWS-12 (6) was designed as a disease-specific patient-based instrument for use in clinical trials and clinical practice, to capture the complex impact of MS on walking ability. […] One of the most important attributes of the MSWS-12 in comparison to other assessments of walking in MS patients is its responsiveness to change. […] By 6 weeks, their score was reduced to 53. This is a 12% improvement. A minimal clinically significant difference has not yet been established.
• The MFIS-5 is a modified form of the Fatigue Impact Scale (10) based on items derived from interviews with MS patients concerning how fatigue impacts their lives. This instrument provides an assessment of the effects of fatigue in terms of physical, cognitive, and psychosocial functioning. • At baseline, they scored 20 on the MFIS-5. By 6 weeks, their score was reduced to 12. This was a reduction of 40%, which is clinically significant.
• The T25FW is another common endpoint in trials. At baseline, they took 16.7 seconds to walk 25 feet, and by 6 weeks they took 15.2 seconds. This improvement in walking speed supports the patient's reported improved outcomes. […] This improvement in progressive MS is likely to also be observed in the relapsing-remitting type of MS. This is because the relapsing-remitting type gives similar signs and symptoms as the progressive type to patients over time.
• For the last 2.5 years, they had been taking stable concomitant fampridine, a potassium channel blocker, for symptomatic treatment for MS. Their MS disease activity had been increasing gradually over these 2.5 years, requiring them to use crutches, and eventually a walker. In December 2014, they started experimental treatment with degarelix. […] They describe in an interview that for the first time they could easily complete certain exercises with their under extremities that they had previously never been able to do during their physiotherapy visits. • Due to this effect, they decided to discontinue their long-term stable fampridine medication on 05.04.15. […] This improvement in progressive MS is likely to also be observed in the relapsing-remitting type of MS. This is because the relapsing-remitting type gives similar signs and symptoms as the progressive type to patients over time.

[4] = tested on: patients 1 and 2 (rheumatoid arthritis); test: Hip bone mineral density in patients taking a GnRH antagonist
Text: However, our data indicates the opposite.

[5] = progressive MS patient, by 6 weeks

## CC(=O)N[C@H](Cc1ccc2ccccc2c1)C(=O)N[C@H](Cc1ccc(Cl)cc1)C(=O)N[C@H](Cc1cccnc1)C(=O)N[C@@H](CO)C(=O)N[C@@H](Cc1ccc(NC(=O)[C@@H]2CC(=O)NC(=O)N2)cc1)C(=O)N[C@H](Cc1ccc(NC(N)=O)cc1)C(=O)N[C@@H](CC(C)C)C(=O)N[C@@H](CCCCNC(C)C)C(=O)N1CCC[C@H]1C(=O)N[C@H](C)C(N)=O [degarelix] (Ac-[d2Nal][dPhe(4-Cl)][d3Pal]S[Phe(4-NH2)](Dihydroorotyl(S))[dPhe(4-NHCONH2)]L[Lys(iPr)]P[dA]-NH2)
Peripheral GnRH; Multiple Sclerosis Patient B, after 1 month, baseline 318
  Peripheral GnRH (ELISA): 210 pg/mL
Peripheral GnRH; Psoriasis Patient C, after 3 months, baseline 300
  Peripheral GnRH (ELISA): 274 pg/mL
Peripheral GnRH; RA Patient A, after 3 months, baseline 394
  Peripheral GnRH (ELISA): 359 pg/mL
[1]; Psoriasis Patient C
  PASI score reduction: more than 20%
[1]; RA Patient A, from 142 mg/L
  CRP: 54 mg/L
[1]; RA Patient A, from 8.6
  DAS score: 4.2
[2]; 21.11.14, degarelix after methotrexate stopped 03.10.14
  Disease activity score: 5.7
[2]; 29.9.14, degarelix with methotrexate 10 mg weekly
  Disease activity score: 5.1
[2]; by 29.09.14 (start 16.06.14), with stable concomitant methotrexate and prednisolone
  ACR response achieved: ACR60
[3]; MS patient, 29.4.15, after fampridine discontinued 05.04.15, from 11.9
  Timed walk test: 14.0 s
[3]; progressive MS patient, 6 weeks, stable vs baseline
  Expanded Disability Status Scale (EDSS): 6.5
[3]; [5]
  MFIS-5 reduction: 40%
  MSIS-29 score reduction: 11
  MSWS-12 improvement: 12%
[3]; progressive MS patient, by 6 weeks, baseline 20
  MFIS-5 score: 12
[3]; progressive MS patient, by 6 weeks, baseline 60
  MSWS-12 score: 53
[3]; progressive MS patient, by 6 weeks, baseline 121
  MSIS-29 score: 110
[3]; progressive MS patient, by 6 weeks, stable fampridine, baseline 16.7
  Timed 25 Foot Walk (T25FW): 15.2 s
[3]; progressive MS patient, from around 4 weeks, further by 6 weeks
  General function (patient reported): general improvement
[4]; Patient 1, first time in 3.5 years, no osteoporosis therapy (FIG. 9)
  Bone mineral density in hips: improvement
[4]; Patient 2, first time in 4.5 years (FIG. 10)
  Bone mineral density in hips: improvement
